The values below come from BindingDB's records for doi:10.7270/Q2Q52N82 (The Scripps Research Institute Molecular Screening Center, 2012).

Molecules are shown by their SMILES.

The assay has as its target ADP-ribosylation factor GTPase-activating protein 1 (Rattus norvegicus, UniProt Q62848).

Chain of ADP-ribosylation factor GTPase-activating protein 1 (Q62848 whole entry): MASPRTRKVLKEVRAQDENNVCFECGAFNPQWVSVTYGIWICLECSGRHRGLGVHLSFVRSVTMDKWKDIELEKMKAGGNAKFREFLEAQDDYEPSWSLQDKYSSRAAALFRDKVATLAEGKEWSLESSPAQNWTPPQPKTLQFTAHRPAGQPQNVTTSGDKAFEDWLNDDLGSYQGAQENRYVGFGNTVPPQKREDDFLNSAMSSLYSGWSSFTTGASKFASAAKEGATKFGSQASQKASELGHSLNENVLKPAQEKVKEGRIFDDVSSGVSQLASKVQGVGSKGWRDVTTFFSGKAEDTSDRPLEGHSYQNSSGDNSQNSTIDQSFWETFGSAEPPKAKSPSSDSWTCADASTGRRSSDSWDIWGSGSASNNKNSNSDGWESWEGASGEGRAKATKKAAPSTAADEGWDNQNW

`CCC(/C=C1\Sc2ccc(OC)cc2N1CCO)=C\c1sc2ccc(OC)cc2[n+]1CCO` had a half-inhibitory concentration (IC50) of more than 165 µM.
Then `CC(C)=CCC/C(C)=C/Cc1c(O)ccc(C(=O)/C=C/c2ccc(O)cc2)c1O`, with more than 165 µM.
Turning to `Cc1ccc2nc(SCC(=O)c3ccc(Cl)cc3)nc(=O)n2c1`, the 50% inhibitory concentration (IC50) was more than 165 µM.
For `c1ccc(-c2cc(-c3nnc4sc(-c5ccccn5)nn34)[nH]n2)cc1` [3-(3-phenyl-1H-pyrazol-5-yl)-6-(2-pyridinyl)-[1,2,4]triazolo[3,4-b][1,3,4]thiadiazole] the value was more than 165 µM; for `O=C(Nc1ccc(CN2CCOCC2)cc1)c1ccc(-c2cc(Cl)ccc2Cl)o1` [5-(2,5-dichlorophenyl)-N-[4-(4-morpholinylmethyl)phenyl]-2-furamide], more than 165 µM.
For `C=c1cc2[nH]c(=O)c(=Cc3ccc(-c4cccc(Cl)c4)o3)c(=N)n2o1` [(6Z)-6-[[5-(3-chlorophenyl)-2-furanyl]methylidene]-7-imino-2-methyl-5-isoxazolo[2,3-a]pyrimidinone] the value was more than 2.03 µM.
Then `Cc1ccc2nc(SCC(=O)Nc3cccc(Cl)c3)nc(=O)n2c1` [MLS001234985], with more than 18.3 µM.
Molecule `COCC(C)n1c(C)cc(C(=O)CN2c3cccc4cccc(c34)S2(=O)=O)c1C` (stereo not given) [MLS002169376] returned an IC50 of more than 165 µM.
Then `CC(=O)c1cccc(NC(=O)c2cccc3c(-c4cnn(C)c4)coc23)c1` [MLS003120506], with more than 165 µM; and `CN(C)CCNC(=O)c1ccc(-c2cn3c(-c4ccc(Oc5ccccc5)cc4)cnc3cn2)cc1` [MLS003123272], with more than 18.3 µM; and `C=CCNc1nc(NCc2cccc(OC)c2)c2sc(-c3ccccc3)cc2n1` [N4-[(3-methoxyphenyl)methyl]-6-phenyl-N2-prop-2-enyl-thieno[3,2-d]pyrimidine-2,4-diamine], with more than 165 µM.
Then `COc1ccc(-c2cc3ccccc3oc2=O)cc1NC(=O)c1cccnc1` [N-[2-methoxy-5-(2-oxidanylidenechromen-3-yl)phenyl]pyridine-3-carboxamide], with more than 165 µM.
In the case of `O=NCc1ccc2noc(-c3ccc(Cl)cc3)c2c1` [SMR000549694], half-maximal inhibition (IC50) required 50.7 µM.
`CCOc1ccc2oc(C(=O)OCC(=O)N3CC(C)OC(C)C3)c(C)c2c1` (stereo not given) [[2-(2,6-dimethylmorpholin-4-yl)-2-oxoethyl] 5-ethoxy-3-methyl-1-benzofuran-2-carboxylate] gave an IC50 of more than 165 µM.
On to `CC1CC(C)CN(C(=O)COC(=O)c2cc3ccccc3cc2O)C1` (stereo not given) [[2-(3,5-dimethylpiperidin-1-yl)-2-oxidanylidene-ethyl] 3-oxidanylnaphthalene-2-carboxylate], for which the concentration for half-maximal inhibition (IC50) is more than 165 µM.
